# From ChEMBL document CHEMBL5096183, “Contemporary advances of cyclic molecules proposed for inflammation” (Eur J Med Chem, 2021)
# Assays:
# Rattus norvegicus [1] = test: Antiulcer activity against ulceration induced albino Wistar rat assessed as ulcerogenic index pretreated daily at 25 mg/kg for 4 days followed by 24 hrs fasting prior to pylorus ligation measured after 4 hrs; assay type: functional; conditions: time 124 hrs
# Mus musculus [2] = test: Analgesic activity in albino […] mouse assessed as increase in reaction on paw licking at 100 mg/kg, po pretreated for 1 hrs followed by hot plate treatment measured after 90 mins by analgesiometer based analysis relative to control; assay type: functional; conditions: time 2.5 hrs
# Rattus norvegicus [3] = test: Anti-inflammatory activity against carrageenan-induced hind paw edema in rat at 20 mg/kg, PO measured after 5 hrs relative to control; assay type: functional
# RAW264.7 = test: Anti-inflammatory activity against LPS induced mouse RAW264.7 cells assessed as suppression of TNFalpha cytokine level at 20 uM incubated for 24 hrs by ELISA assay relative to control; assay type: functional
# Rattus norvegicus [4] = test: Anti-inflammatory activity against Cotton pellets induced granuloma in Albino rat at 20 mg/kg, po administered for 7 days measured on day 8 by measuring pellet weight relative to control; assay type: functional; conditions: time 8 day
# Rattus norvegicus [5] = test: Acute ulcerogenic activity in 18 hrs fasted Wistar rat at 60 mg/kg, po treated for 6 hrs relative to control; assay type: functional
# Rattus norvegicus [6] = test: Anti-inflammatory activity against carrageenan induced paw edema in rat assessed as inhibition of paw edema at 12.5 mg/kg,PO pretreated for 1 hrs followed by carrageenan addition for 4 hrs by plethysmographic analysis relative to control; assay type: functional; conditions: time 5 hrs
# Erythrocyte = test: Anti-inflammatory against heat induced human red blood cells assessed as inhibition of heat induced hemolysis by measuring membrane stabilization for at 100 ug/ml incubated for 30 mins relative to control; assay type: functional; conditions: 0.5 h
# Homo sapiens = species: Homo sapiens; test: Inhibition of proteinase (unknown origin) at 100 ug/ml using casein as substrate preincubated for 5 mins followed by addition of substrate for 20 mins relative to control; conditions: dose 100.0 µg/ml
# Mus musculus [7] = test: Anti-inflammatory activity against Carrageenan-induced paw edema in Swiss albino mouse assessed as change in paw volume at 10 mg/kg, PO measured after 6 hrs by plethysmometric analysis relative to control; assay type: functional
# Rattus norvegicus [8] = test: Acute anti-inflammatory activity against carrageenan induced paw edema in Albino rat at 20 mg/kg, po pretreated for 30 mins followed by carrageenan addition measured every hour for 3 hrs by plethysmography method relative to control; assay type: functional; conditions: time 3.5 hrs
# Rattus norvegicus [9] = test: Anti-inflammatory activity against carrageenan-induced paw edema in Wistar albino rat at 10 mg/kg, po pretreated for 1 hr followed by carrageenan addition measured after 6 hrs by plethysmometer relative to control; assay type: functional; conditions: time 7 hrs
# Rattus norvegicus [10] = test: Anti-inflammatory activity against carrageenan-induced paw oedema in 12 hrs fasted Albino rat assessed as inhibition of oedema formation administered intraperitoneally measured after 3 hrs relative to control; assay type: functional; conditions: route ip
# [11] = Ulcerogenic activity in 12 hrs fasted Albino rat assessed as ulcerogenic index at […] per day, po for 3 days; assay type: toxicity, organism-based; conditions: in vivo, 72 h, time 3 day
# Rattus norvegicus [12] = test: Anti-inflammatory activity against carrageenan-induced paw edema in po dosed Wistar rat pretreated for 1 hrs followed by carrageenan addition measured after 3 hrs; assay type: functional; conditions: time 4 hrs
# Rattus norvegicus [13] = test: Anti-inflammatory activity against carrageenan-induced paw edema in rat relative to control; assay type: functional
# Rattus norvegicus [14] = test: Anti-inflammatory activity against formalin-induced foot paw edema in Wistar rat assessed as oedema inhibition at 10 mg/kg,po measured after 1 hrs by plethysmometric analysis relative to control; assay type: functional
# Rattus norvegicus [15] = test: Anti-inflammatory activity against formalin-induced foot paw edema in Wistar rat assessed as oedema inhibition at 10 mg/kg,po measured after 3 hrs by plethysmometric analysis relative to control; assay type: functional
# Rattus norvegicus [16] = test: Anti-inflammatory activity against formalin-induced foot paw edema in Wistar rat assessed as oedema inhibition at 10 mg/kg,po measured after 6 hrs by plethysmometric analysis relative to control; assay type: functional
# Rattus norvegicus [17] = test: Anti-inflammatory activity against carrageenan-induced paw edema in Sprague-Dawley rat at 30 mg/kg, IP pretreated for 30 mins followed by carrageenan addition measured after 4 hrs relative to control; assay type: functional; conditions: time 4.5 hrs
# Rattus norvegicus [18] = test: Anti-inflammatory activity against carrageenan-induced paw edema in Wistar albino rat model assessed as inhibition of paw edema at 20 mg/kg, PO relative to control; assay type: functional
# Rattus norvegicus [19] = test: Anti-inflammatory activity against carrageenan-induced paw edema in Wistar rat at 20 mg/kg, po assessed as paw edema volume measured after 4 hrs by plethysmometric analysis relative to control; assay type: functional
# Mus musculus [20] = test: Analgesic activity in hot plate induced thermal pain Swiss albino mouse model assessed as change in latency at 10 mg/kg, po measured at 1 to 2 hrs relative to control; assay type: functional; conditions: time 1-2 hrs
smiles,measurement,setting,value
CCOC(=O)c1cc(N)n(C(=O)c2csc(-c3ccccc3)n2)n1,Activity,Rattus norvegicus [1],0.44
Cc1ccc(-c2nnc(CCC(=O)N/N=C3\C(=O)Nc4ccccc43)o2)cc1,Activity,Mus musculus [2],83.17%
O=C1/C(=C\c2ccc(F)cc2)C=C(c2ccc(F)cc2)N1Cc1ccccc1Cl,inhibition in vivo at 20 mg/kg,Rattus norvegicus [3],71.5%
same,Activity,RAW264.7,60.9%
O=C([O-])Cc1ccccc1Nc1c(Cl)cccc1Cl.[Na+] [DICLOFENAC SODIUM],Activity,Rattus norvegicus [4],60.2%
same,Activity,Rattus norvegicus [5],64.7%
same,Activity,Rattus norvegicus [1],4.67
Cc1ccc(N(O)/N=N/c2ccc(S(=O)(=O)Nc3nc(C)cc(C)n3)cc2)cc1,inhibition in vivo at 12.5 mg/kg,Rattus norvegicus [6],97.1%
Clc1cc(Cl)c2cccc(-c3nc4ccccc4o3)c2n1,inhibition at 100 µg/mL,Erythrocyte,80.2%
same,inhibition,Homo sapiens,85.3%
COc1ccc(C2CC(c3ccc(F)cc3O)=NN2)cc1 (centres undefined),Activity,Mus musculus [7],54%
O=C(CCN1CCN(c2ccc([N+](=O)[O-])cc2)CC1)Nc1ccc2oc(Cc3ccc(Cl)cc3)nc2c1,Activity,Rattus norvegicus [8],81.7%
same,Activity,Rattus norvegicus [4],44%
CC(C)Cc1ccc(C(C)C(=O)c2ccc(OCc3cn(Cc4ccc([N+](=O)[O-])cc4)nn3)cc2O)cc1 (centres undefined),inhibition in vivo at 10 mg/kg,Rattus norvegicus [9],94.2%
Cc1ccc(S(=O)(=O)N2CC(O)CC2C(=O)Nc2nc3ccccc3s2)cc1 (centres undefined),inhibition (INH),Rattus norvegicus [10],78%
same,Activity_index,[11],0.89
O=C(CCN1CCN(c2cccc(Cl)c2Cl)CC1)Nc1ccc2oc(Cc3ccc(Cl)cc3)nc2c1,Activity,Rattus norvegicus [8],77.6%
same,Activity,Rattus norvegicus [4],39.3%
O=Cc1cc2cccc(-c3nc4ccccc4o3)c2nc1Cl,inhibition at 100 µg/mL,Erythrocyte,74.3%
same,inhibition,Homo sapiens,80.2%
O=C(O)CC(O)(c1ccccc1)c1ccccc1,ED50,Rattus norvegicus [12],15 µmol/kg
O=C(O)Cc1ccccc1Nc1c(Cl)cccc1Cl [DICLOFENAC],Activity,Rattus norvegicus [13],85.6%
same,inhibition in vivo at 10 mg/kg,Rattus norvegicus [14],41.7%
same,inhibition in vivo at 10 mg/kg,Rattus norvegicus [15],40.7%
same,inhibition in vivo at 10 mg/kg,Rattus norvegicus [16],41.7%
same,inhibition in vivo at 12.5 mg/kg,Rattus norvegicus [6],94%
O=C(CCc1nnc(-c2ccc(O)cc2)o1)N/N=C1\C(=O)Nc2ccccc21,Activity,Mus musculus [2],84.11%
C(=N\c1ccccc1-c1nc2ccccc2o1)/c1cccs1,inhibition at 100 µg/mL,Erythrocyte,70.2%
same,inhibition,Homo sapiens,75.2%
CCOC(=O)CSc1nnc(Cc2ccccc2)n1C1CCCCC1,inhibition in vivo at 30 mg/kg,Rattus norvegicus [17],62.5%
Nc1cc(-c2ccccc2)nn1C(=O)c1csc(-c2ccccc2)n1,Activity,Rattus norvegicus [1],0.44
CC(C)Cc1ccc(C(C)C(=O)O)cc1 (centres undefined) [IBUPROFEN],ED50,Rattus norvegicus [12],15 µmol/kg
same,inhibition in vivo at 10 mg/kg,Rattus norvegicus [9],94.7%
same,Activity,Rattus norvegicus [5],69.5%
same,inhibition in vivo at 20 mg/kg,Rattus norvegicus [18],65.9%
S=c1oc(-c2csc(-c3ccccc3)n2)nn1CN1CCCCC1,Activity,Rattus norvegicus [1],0.44
C/C(=N/Nc1ccc(C(=O)O)cc1)c1cccc(N2C(=O)c3ccccc3C2=O)c1,inhibition in vivo at 10 mg/kg,Rattus norvegicus [14],29.2%
same,inhibition in vivo at 10 mg/kg,Rattus norvegicus [15],22.2%
same,inhibition in vivo at 10 mg/kg,Rattus norvegicus [16],29.2%
O=C(Nc1nc2ccccc2s1)C(Cc1cc2ccccc2[nH]1)N(C(=O)c1ccccc1)S(=O)(=O)c1ccc([N+](=O)[O-])cc1 (centres undefined),inhibition (INH),Rattus norvegicus [10],80%
same,Activity_index,[11],0.82
O=C1/C(=C\c2ccc(F)cc2)C=C(c2ccc(F)cc2)N1Cc1ccc(F)cc1,inhibition in vivo at 20 mg/kg,Rattus norvegicus [3],76.2%
same,Activity,RAW264.7,65.03%
COc1ccccc1OC(=O)c1cc(OC)c(OC)c(OC)c1,inhibition in vivo at 20 mg/kg,Rattus norvegicus [19],77.1%
CN1C(C(=O)Nc2ccccn2)=C(O)c2ccccc2S1(=O)=O [PIROXICAM],inhibition in vivo at 10 mg/kg,Mus musculus [20],75%
COc1cc(Cc2nc3cc(NC(=O)c4ccc(Cl)cc4)ccc3o2)cc(OC)c1OC,inhibition in vivo at 20 mg/kg,Rattus norvegicus [18],79.5%
COc1ccc(/C=C/C(=O)c2ccc(F)cc2O)cc1,Activity,Mus musculus [7],54%
COc1ccc2c(c1)c(CC(=O)O)c(C)n2C(=O)c1ccc(Cl)cc1 [INDOMETHACIN],inhibition in vivo at 20 mg/kg,Rattus norvegicus [3],81%
same,Activity,RAW264.7,68.84%
same,Activity,Mus musculus [2],85.84%
same,inhibition in vivo at 20 mg/kg,Rattus norvegicus [19],81.9%
CN(C)CCC(=O)Nc1ccc2oc(Cc3ccc(Cl)cc3)nc2c1,Activity,Rattus norvegicus [8],72%
same,Activity,Rattus norvegicus [4],48.4%
CC(C(=O)O)C(O)(c1ccccc1)c1ccccc1 (centres undefined),ED50,Rattus norvegicus [12],15 µmol/kg
